Source: PMC8457666 (Science Advances, 2021)
Where a chain is given by its changes, count along the chain named.

Assays:
WzcCDΔC [1] = molecular target: T1, WzcCDΔC (Escherichia coli, UniProt P76387, K540M); test: isothermal titration calorimetry, one-site model; type: binding
T1 sequence (P76387 447-704 K540M limits assumed): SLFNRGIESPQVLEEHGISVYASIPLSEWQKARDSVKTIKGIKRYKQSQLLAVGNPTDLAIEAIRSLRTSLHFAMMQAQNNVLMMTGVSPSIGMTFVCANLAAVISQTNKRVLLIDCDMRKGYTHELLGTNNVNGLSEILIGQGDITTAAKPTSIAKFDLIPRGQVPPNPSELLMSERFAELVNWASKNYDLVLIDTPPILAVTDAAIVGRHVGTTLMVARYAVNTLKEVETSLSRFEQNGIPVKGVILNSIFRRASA

WzcCDΔC [2] = molecular target: T2, WzcCDΔC (Escherichia coli, UniProt P76387); test: isothermal titration calorimetry, one-site model; type: binding
T2 sequence (P76387 447-704 limits assumed): T1 sequence (P76387 447-704 K540M limits assumed) with M94K

Kd (WzcCDΔC [1]): 0.5 ± 0.2 µM
Kd (WzcCDΔC [2]): 2.6 ± 1.1 µM
Structure (SMILES): Nc1ncnc2c1ncn2[C@@H]1O[C@H](COP(=O)(O)OP(=O)(O)O)[C@@H](O)[C@H]1O [ADP]
